Data on seven compounds can be found in ChEMBL document CHEMBL2010784 (ACS Med Chem Lett, 2011).

Molecules are shown by their SMILES. pEC50: −log10 of the molar value. The source made the active and inactive calls. The calls are words filed in the database; no cut-off is given here. A value given as a limit tells only on which side of the number the result lay.

The subject of one data set is Punta Toro virus. In words: Antiviral activity against Punta Toro virus infected in african green monkey Vero cells assessed as inhibition of viral-induced cytopathogenicity. The class given is functional, organism-based.
A further data set relates to Feline coronavirus. The data set can be described thus: Antiviral activity against Feline coronavirus infected in CrFK cells assessed as inhibition of viral-induced cytopathogenicity. The data set is classed as functional, organism-based.
Data set [1] has as its system Respiratory syncytial virus. The data set can be described thus: Antiviral activity against RSV infected in human HeLa cells assessed as inhibition of viral-induced cytopathogenicity. The class given is functional, organism-based.
Another data set deals with Coxsackievirus B4. The data set can be described thus: Antiviral activity against Coxsackie B4 virus infected in african green monkey Vero cells assessed as inhibition of viral-induced cytopathogenicity. The class given is functional, organism-based.
Data set [2] concerns Mammalian orthoreovirus 1. The data set can be described thus: Antiviral activity against Reovirus-1 infected in african green monkey Vero cells assessed as inhibition of viral-induced cytopathogenicity. The class given is functional, organism-based.
Data set [3] deals with Human immunodeficiency virus 1. The data set can be described thus: Antiviral activity against HIV-1 infected in human MT-4 cells assessed as inhibition of viral-induced cytopathogenicity after 4 days by MTT assay. Conditions: Human immunodeficiency virus 1, MT4, 96 h. The class given is functional, organism-based.
The test system of data set [4] is Vesicular stomatitis virus. In words: Antiviral activity against VSV infected in human HeLa cells assessed as inhibition of viral-induced cytopathogenicity. The data set is classed as functional, organism-based.
A further data set relates to Sindbis virus. The data set can be described thus: Antiviral activity against Sindbis virus infected in african green monkey Vero cells assessed as inhibition of viral-induced cytopathogenicity. The class given is functional, organism-based.
The subject of a further data set is Human respirovirus 3. The data set can be described thus: Antiviral activity against Parainfluenza-3 virus infected in african green monkey Vero cells assessed as inhibition of viral-induced cytopathogenicity. The data set is classed as functional, organism-based.
A further data set deals with Felid alphaherpesvirus 1. The data set can be described thus: Antiviral activity against Feline herpes virus infected in CrFK cells assessed as inhibition of viral-induced cytopathogenicity. The class given is functional, organism-based.
Data set [5] can be described thus: Selectivity index, ratio of CC50 for human MT-4 cells to EC50 for HIV-1. The settings on record: read-out: Ratio CC50/EC50. The class given is toxicity, cell-based, MT4.
Data set [6] has as its system Influenza A virus. The data set can be described thus: Antiviral activity against Influenza A virus H3N2 infected in MDCK cells assessed as inhibition of viral-induced cytopathogenicity. The data set is classed as functional, organism-based.
Data set [7] has as its system Influenza A virus. The data set can be described thus: Antiviral activity against Influenza A virus H1N1 infected in MDCK cells assessed as inhibition of viral-induced cytopathogenicity. The data set is classed as functional, organism-based.
Another data set deals with Influenza B virus. In words: Antiviral activity against influenza B virus infected in MDCK cells assessed as inhibition of viral-induced cytopathogenicity. The data set is classed as functional, organism-based.
A short description of data set [8]: (§1) Cytotoxicity against human MT4 cells after 4 days by MTT assay. The settings on record: MT4 cells. The data set is classed as cell-based.
The subject of a further data set is Human alphaherpesvirus 2. The data set can be described thus: Antiviral activity against HSV-2 G infected in HEL cells assessed as inhibition of viral-induced cytopathogenicity. The data set is classed as functional, organism-based. The settings on record: Human alphaherpesvirus 2, strain G.
The subject of data set [9] is Human alphaherpesvirus 1. The data set can be described thus: Antiviral activity against ACV-resistant TK-deficient HSV-1 KOS infected in HEL cells assessed as inhibition of viral-induced cytopathogenicity. The class given is functional, organism-based. The settings on record: Human alphaherpesvirus 1, KOS.
The test system of data set [10] is Human alphaherpesvirus 1. In words: Antiviral activity against HSV-1 KOS infected in HEL cells assessed as inhibition of viral-induced cytopathogenicity. Conditions: Human alphaherpesvirus 1, KOS. The class given is functional, organism-based.
A short description of data set [11]: Selectivity index, ratio of MCC for human HEL cells to EC50 for HSV-2 G.
A short description of data set [12]: Cytotoxicity against human HEL cells assessed as changes in cell morphology by microscopy. The class given is cell-based.
The nature of data set [13]: Selectivity index, ratio of MCC for human HEL cells to EC50 for HSV-1 KOS.
A further data set deals with MT4. The data set is described as §1. The settings on record: mt4, 96 h. The class given is cell-based.

`C#C[C@]1(CO)O[C@@H](n2ccc(N)nc2=O)C[C@@H]1O`: the outcome (in the data set with Punta Toro virus; in the data set on Feline coronavirus; in [1]; in the data set on Coxsackievirus B4; in [2]; in data set [4]) was inactive. The outcome in the data set with Sindbis virus, in the data set with Human respirovirus 3 and with Felid alphaherpesvirus 1 was inactive. The pEC50 in data set [3] is 8.32.
Consider `C#C[C@]1(CO)O[C@@H](n2cnc3c(N)ncnc32)C[C@@H]1O`, for which the selectivity ratio in data set [5] was 1630. Also, the result (in the data set with Punta Toro virus; in the data set on Feline coronavirus; in data set [1]; with Influenza A virus [6]; in the data set with Coxsackievirus B4; in data set [2]) was inactive. Moreover, the result (with Influenza A virus [7]; in data set [4]; in the data set with Sindbis virus; in the data set with Influenza B virus; in the data set with Human respirovirus 3; in the data set with Felid alphaherpesvirus 1) was inactive. Further, the negative-log EC50 (pEC50) in [3] is 8.01. The CC50 at 96 h in [8] is 16 µM.
Regarding `C#C[C@]1(CO)S[C@@H](n2ccc(N)nc2=O)C[C@@H]1O`, the selectivity ratio in data set [5] was determined as 545. Besides, the negative logarithm of the EC50 (pEC50) in the data set on Human alphaherpesvirus 2 is 5.82; with Human alphaherpesvirus 1 [9] it was 5.60; in the data set on Human alphaherpesvirus 1 [10] it was 5.70; in data set [3] it was 7.96. Further, the outcome (in the data set with Punta Toro virus; in the data set on Feline coronavirus; in [1]; with Influenza A virus [6]; with Coxsackievirus B4; in data set [2]) was inactive. For the same compound, the outcome (in the data set on Influenza A virus [7]; in [4]; in the data set with Sindbis virus; with Influenza B virus; in the data set with Human respirovirus 3; in the data set on Felid alphaherpesvirus 1) was inactive. For the same compound, the “Selectivity Index” value in data set [11] and in data set [13] was greater than 50 in each case. Moreover, the MCC in data set [12] was greater than 100 µM. Moreover, the midpoint of cytotoxicity in the data set with MT4, the CC50, lay at 6 µM.
`C#C[C@]1(CO)S[C@@H](n2cnc3c(=O)[nH]c(N)nc32)C[C@@H]1O`: the selectivity ratio in data set [5] was greater than 18200. For the same compound, the pEC50 was 5.82 in the data set on Human alphaherpesvirus 2, 5.35 in the data set with Human alphaherpesvirus 1 [9], 5.52 with Human alphaherpesvirus 1 [10] and 8.26 in data set [3]. Besides, the result (in the data set on Punta Toro virus; in the data set on Feline coronavirus; in data set [1]; in the data set on Influenza A virus [6]; with Coxsackievirus B4; in [2]) was inactive. For the same compound, the outcome (in the data set on Influenza A virus [7]; in [4]; in the data set on Sindbis virus; in the data set on Influenza B virus; with Human respirovirus 3; in the data set on Felid alphaherpesvirus 1) was inactive. Also, the “Selectivity Index” value in data set [11] and in data set [13] was greater than 50 in each case. Moreover, the MCC in data set [12] was greater than 100 µM. The CC50 in the data set with MT4 was greater than 100 µM.
Turning to `C#C[C@]1(CO)O[C@@H](n2cnc3c(=O)[nH]c(N)nc32)C[C@@H]1O`, the selectivity ratio in [5] is 933. Further, the result (with Punta Toro virus; in the data set on Feline coronavirus; in [1]; with Influenza A virus [6]; in the data set on Coxsackievirus B4; in data set [2]) was inactive. Moreover, the result (in the data set with Influenza A virus [7]; in data set [4]; with Sindbis virus; in the data set with Influenza B virus; in the data set on Human respirovirus 3; in the data set with Felid alphaherpesvirus 1) was inactive. Also, in data set [3], the pEC50 was 8.82. Besides, the CC50 at 96 h in data set [8] is 1.4 µM.
With `Nc1nc2c(ncn2COC(CO)CO)c(=O)[nH]1` [GANCICLOVIR], in data set [12], the MCC was greater than 100 µM.
On to `C#C[C@]1(CO)S[C@@H](n2cnc3c(N)ncnc32)C[C@@H]1O`, for which, in data set [5], the selectivity ratio is greater than 230. Also, the pEC50 in the data set with Human alphaherpesvirus 2 was 5.40; with Human alphaherpesvirus 1 [9], 5.10; in the data set with Human alphaherpesvirus 1 [10], 5.15; in data set [3], 7.06. Further, the outcome (with Punta Toro virus; with Feline coronavirus; in [1]; in the data set on Influenza A virus [6]; with Coxsackievirus B4; in data set [2]) was inactive. The outcome (in the data set with Influenza A virus [7]; in data set [4]; with Sindbis virus; in the data set with Influenza B virus; with Human respirovirus 3; in the data set on Felid alphaherpesvirus 1) was inactive. The MCC in data set [12] was greater than 100 µM. Besides, the cytotoxic concentration (CC50) in the data set on MT4 was greater than 20 µM.
